# From patent publication US10533010B2, “Substituted indole Mcl-1 inhibitors” (Vanderbilt University, priority 2014, dated 2020)
# Where two headings read alike, the source gives them in different places.
# Biological target: recombinant Mcl-1 (residues 172-327) (Homo sapiens (Human), UniProt Q07820)
# Experiment: Fluorescence polarization anisotropy competition assay (FITC-Bak or FITC-Bim BH3 peptide) with Mcl-1
# Format: binding
# [1] = Table 2, Ki bins given in nM, FITC-Bak or FITC-Bim peptide competition, Ki converted from IC50, read-out: Ki for Inhibition of Mcl-1
# Sequence of recombinant Mcl-1 (residues 172-327) (Q07820 172-327): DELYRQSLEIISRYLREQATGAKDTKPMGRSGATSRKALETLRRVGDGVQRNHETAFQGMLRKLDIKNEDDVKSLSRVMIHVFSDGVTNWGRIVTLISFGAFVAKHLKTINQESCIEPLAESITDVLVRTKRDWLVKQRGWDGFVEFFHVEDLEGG
compound,measurement,setting,value
"Cc1cc(OCCCc2c3n(c4c(-c5c(C)nn(C)c5C)c(Cl)ccc24)CCCN(c2cc(CN4CCOCC4)cc(C(=O)O)c2)C3=O)cc(C)c1Cl [I-227, 3-(8-chloro-11-(3-(4-chloro-3,5-dimethylphenoxy)propyl)-1-oxo-7-(1,3,5-trimethyl-1H-pyrazol-4-yl)-4,5-dihydro-1H-[1,4]diazepino[1,2-a]indol-2(3H)-yl)-5-(morpholinomethyl)benzoic acid]",Ki,[1],< 50 nM
"Cc1nn(C)c(C)c1-c1cccc2c(CCCOc3cccc4ccccc34)c(C(=O)Nc3cccc(C(=O)O)c3)[nH]c12 [I-193, 3-(3-(3-(naphthalen-1-yloxy)propyl)-7-(1,3,5-trimethyl-1H-pyrazol-4-yl)-1H-indole-2-carboxamido)benzoic acid]",Ki,[1],< 50 nM
"Cc1cc(OCCCc2c(C(=O)NCc3ccc(C(=O)NS(=O)(=O)c4ccccc4)o3)[nH]c3ccccc23)cc(C)c1Cl [I-60, 3-(3-(4-chloro-3,5-dimethylphenoxy)propyl)-N-((5-((phenylsulfonyl)carbamoyl)furan-2-yl)methyl)-1H-indole-2-carboxamide]",Ki,[1],101 to 299 nM
"Cc1cc(OCCCc2c(C(=O)N(C)c3cccc(C(=O)O)c3)[nH]c3c(-c4c(C)nn(C)c4C)cccc23)cc(C)c1Cl [I-197, 3-(3-(3-(4-chloro-3,5-dimethylphenoxy)propyl)-N-methyl-7-(1,3,5-trimethyl-1H-pyrazol-4-yl)-1H-indole-2-carboxamido)benzoic acid]",Ki,[1],< 50 nM
"Cc1cc(OCCCc2c3n(c4c(-c5c(C)nn(C)c5C)c(Cl)ccc24)CCC(C)NC3=O)cc(C)c1Cl (stereo not drawn) [I-114, 8-chloro-1-(3-(4-chloro-3,5-dimethylphenoxy)propyl)-3-methyl-7-(1,3,5-trimethyl-1H-pyrazol-4-yl)-2,3,4,5-tetrahydro-1H-[1,4]diazepino[1,2-a]indol-1-one]",Ki,[1],< 50 nM
"Cc1cc(OCCCc2c(C(=O)NCCC(=O)NS(=O)(=O)c3ccccc3C#N)[nH]c3ccccc23)cc(C)c1Cl [I-18, 3-(3-(4-chloro-3,5-dimethylphenoxy)propyl)-N-(3-((2-cyanophenyl)sulfonamido)-3-oxopropyl)-1H-indole-2-carboxamide]",Ki,[1],301 to 500 nM
"Cc1cc(OCCCc2c(C(=O)N[C@H]3CCC[C@H]3C(=O)O)[nH]c3c(-c4c(C)nn(C)c4C)c(Cl)ccc23)cc(C)c1Cl [I-334, (1R,2S)-2-(6-chloro-3-(3-(4-chloro-3,5-dimethylphenoxy)propyl)-7-(1,3,5-trimethyl-1H-pyrazol-4-yl)-1H-indole-2-carboxamido)cyclopentane-1-carboxylic acid]",Ki,[1],< 50 nM
"Cc1cc(OCCCc2c3n(c4c(-c5c(C)nn(C)c5C)c(Cl)ccc24)C(C)CN(Cc2ccc(C(=O)O)cn2)C3=O)cc(C)c1Cl (stereo not drawn) [I-129, 6-((7-chloro-10-(3-(4-chloro-3,5-dimethylphenoxy)propyl)-4-methyl-1-oxo-6-(1,3,5-trimethyl-1H-pyrazol-4-yl)-3,4-dihydropyrazino[1,2-a]indol-2(1H)-yl)methyl)nicotinic acid]",Ki,[1],< 50 nM
"Cc1cc(OCCCc2c(C(=O)N3CCC(C(=O)O)C3)[nH]c3c(-c4c(C)nn(C)c4C)c(Cl)ccc23)cc(C)c1Cl (stereo not drawn) [I-336, 1-(6-chloro-3-(3-(4-chloro-3,5-dimethylphenoxy)propyl)-7-(1,3,5-trimethyl-1H-pyrazol-4-yl)-1H-indole-2-carbonyl)pyrrolidine-3-carboxylic acid]",Ki,[1],< 50 nM
"Cc1cc(OCCCc2c(C(=O)NCC(=O)NS(=O)(=O)c3ccc(Oc4ccccc4)cc3)[nH]c3ccccc23)cc(C)c1Cl [I-8, 3-(3-(4-chloro-3,5-dimethylphenoxy)propyl)-N-(2-oxo-2-((4-phenoxyphenyl)sulfonamido)ethyl)-1H-indole-2-carboxamide]",Ki,[1],101 to 299 nM
"Cc1cc(OCCCc2c(C(=O)NCc3ccc(C(=O)O)o3)[nH]c3ccccc23)cc(C)c1Cl [I-57, 5-((3-(3-(4-chloro-3,5-dimethylphenoxy)propyl)-1H-indole-2-carboxamido)methyl)furan-2-carboxylic acid]",Ki,,51 to 100 nM
"Cc1cc(OCCCc2c3n(c4c(-c5c(C)nn(C)c5C)c(Cl)ccc24)CCCN(c2ccc(-c4nn[nH]n4)cc2)C3=O)cc(C)c1Cl [I-357, 2-(4-(2H-tetrazol-5-yl)phenyl)-8-chloro-1-(3-(4-chloro-3,5-dimethylphenoxy)propyl)-7-(1,3,5-trimethyl-1H-pyrazol-4-yl)-2,3,4,5-tetrahydro-1H-[1,4]diazepino[1,2-a]indol-1-one]",Ki,[1],< 50 nM
"Cc1cc(OCCCc2c(C(=O)N[C@H]3CCC[C@H]3C(=O)O)[nH]c3c(-c4c(C)nn(C)c4C)cccc23)cc(C)c1Cl [I-314, (1R,2S)-2-(3-(3-(4-chloro-3,5-dimethylphenoxy)propyl)-7-(1,3,5-trimethyl-1H-pyrazol-4-yl)-1H-indole-2-carboxamido)cyclopentane-1-carboxylic acid]",Ki,[1],51 to 100 nM
"Cc1cc(OCCCc2c(C(=O)NCCC(=O)NS(=O)(=O)C3CC3)[nH]c3ccccc23)cc(C)c1Cl [I-13, 3-(3-(4-chloro-3,5-dimethylphenoxy)propyl)-N-(3-(cyclopropanesulfonamido)-3-oxopropyl)-1H-indole-2-carboxamide]",Ki,[1],301 to 500 nM
"Cc1cc(OCCCc2c3n(c4c(-c5c(C)nn(C)c5C)c(Cl)ccc24)CCCN(c2ccc(C(=O)O)c(F)c2)C3=O)cc(C)c1Cl [I-94, 4-(8-chloro-11-(3-(4-chloro-3,5-dimethylphenoxy)propyl)-1-oxo-7-(1,3,5-trimethyl-1H-pyrazol-4-yl)-4,5-dihydro-1H-[1,4]diazepino[1,2-a]indol-2(3H)-yl)-2-fluorobenzoic acid]",Ki,[1],< 50 nM
"Cc1cc(OCCCc2c3n(c4c(-c5c(C)nn(C)c5C)c(Cl)ccc24)CCCN(Cc2ccc(C(=O)O)cn2)C3=O)cc(C)c1Cl [I-102, 6-((8-chloro-11-(3-(4-chloro-3,5-dimethylphenoxy)propyl)-1-oxo-7-(1,3,5-trimethyl-1H-pyrazol-4-yl)-4,5-dihydro-1H-[1,4]diazepino[1,2-a]indol-2(3H)-yl)methyl)nicotinic acid]",Ki,[1],< 50 nM
"Cc1cc(OCCCc2c(C(=O)NCC(=O)NS(=O)(=O)c3ccc4ccccc4c3)[nH]c3ccccc23)cc(C)c1Cl [I-7, 3-(3-(4-chloro-3,5-dimethylphenoxy)propyl)-N-(2-(naphthalene-2-sulfonamido)-2-oxoethyl)-1H-indole-2-carboxamide]",Ki,[1],101 to 299 nM
"Cc1cc(OCCCc2c(C(=O)NCc3ccc(C(=O)O)o3)n(C)c3c(-c4c(C)nn(C)c4C)cccc23)cc(C)c1Cl [I-66, 5-((3-(3-(4-chloro-3,5-dimethylphenoxy)propyl)-1-methyl-7-(1,3,5-trimethyl-1H-pyrazol-4-yl)-1H-indole-2-carboxamido)methyl)furan-2-carboxylic acid]",Ki,[1],< 50 nM
same,Ki,"Table 2, Ki bins given in μM, FITC-Bak or FITC-Bim peptide competition, Ki converted from IC50, read-out: Ki for Inhibition of Mcl-1",10000 to 50000 nM
"Cc1cc(OCCCc2c(C(=O)NCc3cc(C(=O)O)cc(N4CCc5ccccc5C4)n3)[nH]c3c(-c4c(C)nn(C)c4C)c(Cl)ccc23)cc(C)c1Cl [I-282, 2-((6-chloro-3-(3-(4-chloro-3,5-dimethylphenoxy)propyl)-7-(1,3,5-trimethyl-1H-pyrazol-4-yl)-1H-indole-2-carboxamido)methyl)-6-(3,4-dihydroisoquinolin-2(1H)-yl)isonicotinic acid]",Ki,[1],< 50 nM
"Cc1cc(OCCCc2c(C(=O)NCc3cccc(C(=O)NS(=O)(=O)c4ccccc4C#N)c3)[nH]c3c(-c4c(CN5CCCC5)nn(C)c4C)cccc23)cc(C)c1Cl [I-35, 3-(3-(4-chloro-3,5-dimethylphenoxy)propyl)-N-(3-(((2-cyanophenyl)sulfonyl)carbamoyl)benzyl)-7-(1,5-dimethyl-3-(pyrrolidin-1-ylmethyl)-1H-pyrazol-4-yl)-1H-indole-2-carboxamide]",Ki,[1],< 50 nM
"COC(=O)CNC(=O)c1[nH]c2ccccc2c1CCCOc1cc(C)c(Cl)c(C)c1 [I-2, methyl (3-(3-(4-chloro-3,5-dimethylphenoxy)propyl)-1H-indole-2-carbonyl)glycinate]",Ki,,1000 to 9990 nM
"Cc1cc(OCCCc2c3n(c4c(-c5c(C)nn(C)c5C)c(Cl)ccc24)CCCN(c2cc(C(=O)O)cc4c2ccn4Cc2cccnc2)C3=O)cc(C)c1Cl [I-242, 4-(8-chloro-11-(3-(4-chloro-3,5-dimethylphenoxy)propyl)-1-oxo-7-(1,3,5-trimethyl-1H-pyrazol-4-yl)-4,5-dihydro-1H-[1,4]diazepino[1,2-a]indol-2(3H)-yl)-1-(pyridin-3-ylmethyl)-1H-indole-6-carboxylic acid]",Ki,[1],< 50 nM
"Cc1cc(OCCCc2c3n(c4c(-c5c(C)nn(C)c5C)cccc24)CCCN(Cc2ccc(N4CCCCC4)c(C(=O)O)c2)C3=O)cc(C)c1Cl [I-81, 5-((11-(3-(4-chloro-3,5-dimethylphenoxy)propyl)-1-oxo-7-(1,3,5-trimethyl-1H-pyrazol-4-yl)-4,5-dihydro-1H-[1,4]diazepino[1,2-a]indol-2(3H)-yl)methyl)-2-(piperidin-1-yl)benzoic acid]",Ki,[1],51 to 100 nM
"Cc1cc(OCCCc2c3n(c4c(-c5c(C)nn(C)c5C)c(Cl)ccc24)CCCN(CC(=O)N[C@@H](Cc2ccccc2)C(=O)O)C3=O)cc(C)c1Cl [I-305, (2-(8-chloro-11-(3-(4-chloro-3,5-dimethylphenoxy)propyl)-1-oxo-7-(1,3,5-trimethyl-1H-pyrazol-4-yl)-4,5-dihydro-1H-[1,4]diazepino[1,2-a]indol-2(3H)-yl)acetyl)-L-phenylalanine]",Ki,[1],< 50 nM
"Cc1cc(OCCCc2c3n(c4c(-c5c(C)nn(C)c5C)c(Cl)ccc24)CC(C)CNC3=O)cc(C)c1Cl (stereo not drawn) [I-115, 8-chloro-1-(3-(4-chloro-3,5-dimethylphenoxy)propyl)-4-methyl-7-(1,3,5-trimethyl-1H-pyrazol-4-yl)-2,3,4,5-tetrahydro-1H-[1,4]diazepino[1,2-a]indol-1-one]",Ki,[1],< 50 nM
"Cc1cc(OCCCc2c3n(c4c(-c5c(C)nn(C)c5C)c(Cl)ccc24)CCCN(c2cccc4c2ccn4C)C3=O)cc(C)c1Cl [I-247, 8-chloro-1-(3-(4-chloro-3,5-dimethylphenoxy)propyl)-2-(1-methyl-1H-indol-4-yl)-7-(1,3,5-trimethyl-1H-pyrazol-4-yl)-2,3,4,5-tetrahydro-1H-[1,4]diazepino[1,2-a]indol-1-one]",Ki,[1],< 50 nM
